Test results as given in publication PMC5218480 (PLoS ONE, 2017).

Tested on: MV-4-11 cells
Experiment: Gene expression microarray analysis (Affymetrix PrimeView) and GSEA
Format: cell-based, human
Design: RFU PODN (11730768_x_at) / Fold change /veh PODN (11730768_x_at) / RFU LINC00158 (11744669_a_at) / Fold change /veh LINC00158 (11744669_a_at) / RFU DUSP10 (11751237_a_at) / Fold change /veh DUSP10 (11751237_a_at) / RFU ID3 (11757404_x_at) / Fold change /veh ID3 (11757404_x_at) / RFU PLEKHG5 (11737974_s_at) / Fold change /veh PLEKHG5 (11737974_s_at) / RFU LRRC4B (11730491_at) / Fold change /veh LRRC4B (11730491_at) / RFU GIMAP4 (11747438_a_at) / Fold change /veh GIMAP4 (11747438_a_at) / RFU KRT8 (11758183_x_at) / Fold change /veh KRT8 (11758183_x_at) / RFU CNN1 (11734310_a_at) / Fold change /veh CNN1 (11734310_a_at) / RFU VPS37D (11726825_at) / Fold change /veh VPS37D (11726825_at) / RFU C10orf10 (11716522_x_at) / Fold change /veh C10orf10 (11716522_x_at) / RFU KIR2DL2 /// KIR2DL4 /// KIR2DL5A /// KIR2DL5B /// KIR2DS1 /// KIR2DS2 /// KIR2DS3 /// KIR2DS4 /// KIR3DL3 /// KIR3DL3 /// KIR3DS1 (11738374_at) / Fold change /veh KIR2DL2 /// KIR2DL4 /// KIR2DL5A /// KIR2DL5B /// KIR2DS1 /// KIR2DS2 /// KIR2DS3 /// KIR2DS4 /// KIR3DL3 /// KIR3DL3 /// KIR3DS1 (11738374_at) / RFU C1QL1 (11718748_at) / Fold change /veh C1QL1 (11718748_at) / RFU TMPRSS4 (11747572_a_at) / Fold change /veh TMPRSS4 (11747572_a_at) / RFU HAMP (11756126_x_at) / Fold change /veh HAMP (11756126_x_at) / RFU RNFT2 (11725882_a_at) / Fold change /veh RNFT2 (11725882_a_at) / RFU NR4A2 (11747474_a_at) / Fold change /veh NR4A2 (11747474_a_at) / RFU ABCC12 (11746883_a_at) / Fold change /veh ABCC12 (11746883_a_at) / RFU TMEM136 (11760407_x_at) / Fold change /veh TMEM136 (11760407_x_at) / RFU CLDN22 /// WWC2 (11732394_at) / Fold change /veh CLDN22 /// WWC2 (11732394_at) / RFU HLA-DPB1 (11760878_x_at) / Fold change /veh HLA-DPB1 (11760878_x_at) / RFU SPINT1 (11716480_a_at) / Fold change /veh SPINT1 (11716480_a_at) / RFU GAP43 (11754022_s_at) / Fold change /veh GAP43 (11754022_s_at) / RFU A4GNT (11735810_at) / Fold change /veh A4GNT (11735810_at) / RFU PRB3 (11715151_x_at) / Fold change /veh PRB3 (11715151_x_at) / RFU TUBB4B (11761932_at) / Fold change /veh TUBB4B (11761932_at) / RFU CAPN14 (11732068_a_at) / Fold change /veh CAPN14 (11732068_a_at) / RFU TMCC2 (11721928_a_at) / Fold change /veh TMCC2 (11721928_a_at) / RFU IRGQ (11745062_a_at) / Fold change /veh IRGQ (11745062_a_at) / RFU FAM174B (11720279_a_at) / Fold change /veh FAM174B (11720279_a_at) / RFU TMPRSS4 (11748680_a_at) / Fold change /veh TMPRSS4 (11748680_a_at) / RFU FAM212B (11763350_a_at) / Fold change /veh FAM212B (11763350_a_at) / RFU PLEKHG5 (11743358_a_at) / Fold change /veh PLEKHG5 (11743358_a_at) / RFU ZSCAN30 (11745921_a_at) / Fold change /veh ZSCAN30 (11745921_a_at) / RFU CMKLR1 (11741424_a_at) / Fold change /veh CMKLR1 (11741424_a_at) / RFU LOC101060620 /// MAPK8IP1 (11723275_at) / Fold change /veh LOC101060620 /// MAPK8IP1 (11723275_at) / RFU SPTSSB (11747773_x_at) / Fold change /veh SPTSSB (11747773_x_at) / RFU PRSS12 (11739890_at) / Fold change /veh PRSS12 (11739890_at) / RFU BIN1 (11741810_x_at) / Fold change /veh BIN1 (11741810_x_at) / RFU WNT11 (11732464_a_at) / Fold change /veh WNT11 (11732464_a_at) / RFU C10orf10 (11716521_a_at) / Fold change /veh C10orf10 (11716521_a_at) / RFU C5orf56 (11738089_at) / Fold change /veh C5orf56 (11738089_at) / RFU CYB561 (11721691_x_at) / Fold change /veh CYB561 (11721691_x_at) / RFU ANKRD19P (11752326_a_at) / Fold change /veh ANKRD19P (11752326_a_at) / RFU OR2T12 /// OR2T33 /// OR2T8 (11738714_s_at) / Fold change /veh OR2T12 /// OR2T33 /// OR2T8 (11738714_s_at) / RFU VCAN (11748164_a_at) / Fold change /veh VCAN (11748164_a_at) / RFU JSRP1 (11732532_at) / Fold change /veh JSRP1 (11732532_at) / RFU KRTAP10-11 (11738290_x_at) / Fold change /veh KRTAP10-11 (11738290_x_at) / RFU MYO3A (11730013_a_at) / Fold change /veh MYO3A (11730013_a_at) / RFU EBF3 (11725865_a_at) / Fold change /veh EBF3 (11725865_a_at) / RFU CAMK2N1 (11719241_x_at) / Fold change /veh CAMK2N1 (11719241_x_at) / RFU C5orf56 (11738088_a_at) / Fold change /veh C5orf56 (11738088_a_at) / RFU OLFML3 (11715873_a_at) / Fold change /veh OLFML3 (11715873_a_at) / RFU LOC100653217 /// NTM (11731650_a_at) / Fold change /veh LOC100653217 /// NTM (11731650_a_at) / RFU MAPK11 (11762145_a_at) / Fold change /veh MAPK11 (11762145_a_at) / RFU FIZ1 (11724087_x_at) / Fold change /veh FIZ1 (11724087_x_at) / RFU OASL (11726364_x_at) / Fold change /veh OASL (11726364_x_at) / RFU SOX15 (11748057_x_at) / Fold change /veh SOX15 (11748057_x_at) / RFU CD79A (11719716_a_at) / Fold change /veh CD79A (11719716_a_at) / RFU HIST1H1D (11736915_at) / Fold change /veh HIST1H1D (11736915_at) / RFU CASKIN2 (11723855_a_at) / Fold change /veh CASKIN2 (11723855_a_at) / RFU LOC730098 (11760151_x_at) / Fold change /veh LOC730098 (11760151_x_at) / RFU OR4N2 (11742367_at) / Fold change /veh OR4N2 (11742367_at) / RFU PRRT2 (11749266_a_at) / Fold change /veh PRRT2 (11749266_a_at) / RFU SNX32 (11753110_a_at) / Fold change /veh SNX32 (11753110_a_at) / RFU CDHR5 (11726645_a_at) / Fold change /veh CDHR5 (11726645_a_at) / RFU RCAN1 (11760418_a_at) / Fold change /veh RCAN1 (11760418_a_at) / RFU FAM167A (11723789_a_at) / Fold change /veh FAM167A (11723789_a_at) / RFU FAM26E (11764081_at) / Fold change /veh FAM26E (11764081_at) / RFU ISYNA1 (11749810_s_at) / Fold change /veh ISYNA1 (11749810_s_at) / RFU ACY1 (11761880_at) / Fold change /veh ACY1 (11761880_at) / RFU 11764098_at / Fold change /veh 11764098_at / RFU SAMD14 (11745864_x_at) / Fold change /veh SAMD14 (11745864_x_at) / RFU NPB (11741838_a_at) / Fold change /veh NPB (11741838_a_at) / RFU TMPRSS6 (11731388_a_at) / Fold change /veh TMPRSS6 (11731388_a_at) / RFU KRTAP10-2 (11738614_at) / Fold change /veh KRTAP10-2 (11738614_at) / RFU ARHGAP8 /// PRR5-ARHGAP8 (11727945_x_at) / Fold change /veh ARHGAP8 /// PRR5-ARHGAP8 (11727945_x_at) / RFU KRTAP5-7 /// NADSYN1 (11734609_at) / Fold change /veh KRTAP5-7 /// NADSYN1 (11734609_at) / RFU RASL12 (11751679_a_at) / Fold change /veh RASL12 (11751679_a_at) / RFU CDKN2B (11736163_a_at) / Fold change /veh CDKN2B (11736163_a_at) / RFU PRF1 (11729649_at) / Fold change /veh PRF1 (11729649_at) / RFU, ZNF638 /// ZNF638-IT1 / Fold change vs veh, ZNF638 /// ZNF638-IT1 / RFU, PANK3 / Fold change vs veh, PANK3 / RFU, SH3YL1 / Fold change vs veh, SH3YL1 / RFU, ZEB2 / Fold change vs veh, ZEB2 / RFU, NRIP1 / Fold change vs veh, NRIP1 / RFU, PTTG1IP / Fold change vs veh, PTTG1IP / RFU, CAPN2 / Fold change vs veh, CAPN2 / RFU, MED14 / Fold change vs veh, MED14 / RFU, SNORA58 / Fold change vs veh, SNORA58 / RFU, C1orf63 / Fold change vs veh, C1orf63 / RFU, LRRFIP1 / Fold change vs veh, LRRFIP1 / RFU, NDUFAF7 / Fold change vs veh, NDUFAF7 / RFU, SLC12A2 / Fold change vs veh, SLC12A2 / RFU, IBTK / Fold change vs veh, IBTK / RFU, ESF1 / Fold change vs veh, ESF1 / Fold change vs veh, TMEM50B / RFU, TAOK1 / Fold change vs veh, TAOK1 / RFU, ACBD3 / Fold change vs veh, ACBD3 / RFU, TMA16 / Fold change vs veh, TMA16 / RFU, RWDD3 / Fold change vs veh, RWDD3 / RFU, BCAT1 / Fold change vs veh, BCAT1 / RFU, EDEM3 / Fold change vs veh, EDEM3 / RFU, TMEM33 / Fold change vs veh, TMEM33 / RFU, WDR75 / Fold change vs veh, WDR75 / RFU, AHCTF1 / Fold change vs veh, AHCTF1 / RFU, TFRC / Fold change vs veh, TFRC / RFU, ZDHHC17 / Fold change vs veh, ZDHHC17 / RFU, NOM1 / Fold change vs veh, NOM1 / RFU, ARL8B / Fold change vs veh, ARL8B / RFU, ZBTB11 / Fold change vs veh, ZBTB11 / RFU, TAMM41 / Fold change vs veh, TAMM41 / RFU, KIAA1704 /// LOC100996395 / Fold change vs veh, KIAA1704 /// LOC100996395 / RFU, ING1 / Fold change vs veh, ING1 / RFU, TRMT61B / Fold change vs veh, TRMT61B / RFU, FUBP3 / Fold change vs veh, FUBP3 / RFU, TP53 / Fold change vs veh, TP53 / RFU, TNKS2 / Fold change vs veh, TNKS2 / RFU, ZFP14 / Fold change vs veh, ZFP14 / RFU, ACTR2 / Fold change vs veh, ACTR2 / RFU, PPP3R1 / Fold change vs veh, PPP3R1 / RFU, PIK3R1 / Fold change vs veh, PIK3R1 / RFU, HNRNPA1 / Fold change vs veh, HNRNPA1 / RFU, RNF170 / Fold change vs veh, RNF170 / RFU, ZNF28 / Fold change vs veh, ZNF28 / RFU, RNGTT / Fold change vs veh, RNGTT / RFU, OGT / Fold change vs veh, OGT / RFU, BRD1 / Fold change vs veh, BRD1 / RFU, MARS / Fold change vs veh, MARS / RFU, ZNF655 / Fold change vs veh, ZNF655 / RFU, FAHD1 / Fold change vs veh, FAHD1 / RFU, BDP1 / Fold change vs veh, BDP1 / RFU, LRRCC1 / Fold change vs veh, LRRCC1 / RFU, ARID1A / Fold change vs veh, ARID1A / RFU, ZNF146 / Fold change vs veh, ZNF146 / RFU, ZNF330 / Fold change vs veh, ZNF330 / RFU, GPN3 / Fold change vs veh, GPN3 / RFU, C9orf123 / Fold change vs veh, C9orf123 / RFU, N4BP2L2 / Fold change vs veh, N4BP2L2 / RFU, ARFIP1 / Fold change vs veh, ARFIP1 / RFU, FAM179B / Fold change vs veh, FAM179B / RFU, BCL10 / Fold change vs veh, BCL10 / RFU, UHRF1BP1L / Fold change vs veh, UHRF1BP1L / RFU, BET1 / Fold change vs veh, BET1 / RFU, CNOT2 / Fold change vs veh, CNOT2 / RFU, ZNF268 / Fold change vs veh, ZNF268 / Fold change vs veh, ZNF507 / RFU, DGCR2 / Fold change vs veh, DGCR2 / RFU, WDSUB1 / Fold change vs veh, WDSUB1 / Fold change vs veh, HSP90B1 /// MIR3652 / RFU, ADSS / Fold change vs veh, ADSS / RFU, GK / Fold change vs veh, GK / RFU, ZNF148 / Fold change vs veh, ZNF148 / RFU, TAF9 / Fold change vs veh, TAF9 / RFU, SLC1A5 / Fold change vs veh, SLC1A5 / RFU, SLMO2 / Fold change vs veh, SLMO2 / RFU, ABCC4 / Fold change vs veh, ABCC4 / RFU, LOC101060439 /// RAP1B / Fold change vs veh, LOC101060439 /// RAP1B / RFU, RFX7 / Fold change vs veh, RFX7 / RFU, GTPBP10 / Fold change vs veh, GTPBP10 / RFU, CNEP1R1 / Fold change vs veh, CNEP1R1 / RFU, BIVM-ERCC5 /// ERCC5 / Fold change vs veh, BIVM-ERCC5 /// ERCC5 / RFU, ILF3 / Fold change vs veh, ILF3 / RFU 11762660_at / Fold change /veh 11762660_at / RFU VCAN (11757783_s_at) / Fold change /veh VCAN (11757783_s_at) / RFU DDX43 (11728927_at) / Fold change /veh DDX43 (11728927_at) / RFU KRT8 (11758188_x_at) / Fold change /veh KRT8 (11758188_x_at) / RFU NKD1 (11759106_at) / Fold change /veh NKD1 (11759106_at) / RFU SRD5A1 (11742802_a_at) / Fold change /veh SRD5A1 (11742802_a_at) / RFU TPSAB1 /// TPSB2 (11721975_s_at) / Fold change /veh TPSAB1 /// TPSB2 (11721975_s_at) / RFU GSTM3 (11746129_a_at) / Fold change /veh GSTM3 (11746129_a_at) / RFU IL23R (11737362_x_at) / Fold change /veh IL23R (11737362_x_at) / RFU TMEM51 (11727254_a_at) / Fold change /veh TMEM51 (11727254_a_at) / RFU PIWIL2 (11732686_x_at) / Fold change /veh PIWIL2 (11732686_x_at) / RFU ORM1 (11744905_x_at) / Fold change /veh ORM1 (11744905_x_at) / RFU CCDC152 (11743942_at) / Fold change /veh CCDC152 (11743942_at) / RFU ECM1 (11717891_a_at) / Fold change /veh ECM1 (11717891_a_at) / RFU IL23R (11748794_a_at) / Fold change /veh IL23R (11748794_a_at) / RFU TNFAIP8L3 (11732012_x_at) / Fold change /veh TNFAIP8L3 (11732012_x_at) / RFU MBOAT4 (11741988_at) / Fold change /veh MBOAT4 (11741988_at) / RFU 11764193_at / Fold change /veh 11764193_at / RFU TMEM53 (11763286_at) / Fold change /veh TMEM53 (11763286_at) / RFU MAGEB2 (11727129_at) / Fold change /veh MAGEB2 (11727129_at) / RFU TMEM200A (11744735_a_at) / Fold change /veh TMEM200A (11744735_a_at) / RFU CCDC152 (11751479_a_at) / Fold change /veh CCDC152 (11751479_a_at) / RFU FAM211A (11726209_a_at) / Fold change /veh FAM211A (11726209_a_at) / RFU RGS16 (11746705_a_at) / Fold change /veh RGS16 (11746705_a_at) / RFU VCAN (11755009_s_at) / Fold change /veh VCAN (11755009_s_at) / RFU RHOB (11743442_s_at) / Fold change /veh RHOB (11743442_s_at) / RFU RGS16 (11720943_a_at) / Fold change /veh RGS16 (11720943_a_at) / RFU RGS16 (11720944_at) / Fold change /veh RGS16 (11720944_at) / RFU, VPS4B / Fold change vs veh, VPS4B / RFU, CREB1 / Fold change vs veh, CREB1 / RFU, DNAJC13 / Fold change vs veh, DNAJC13 / RFU, GNAQ / Fold change vs veh, GNAQ / RFU, CDK5R1 / Fold change vs veh, CDK5R1 / RFU, ZRANB3 / Fold change vs veh, ZRANB3 / RFU, CUL4A / Fold change vs veh, CUL4A / RFU, CCNY / Fold change vs veh, CCNY / RFU, UFL1 / Fold change vs veh, UFL1 / RFU, COG3 / Fold change vs veh, COG3 / RFU, DIAPH2 / Fold change vs veh, DIAPH2 / RFU, SKA2 / Fold change vs veh, SKA2 / RFU, AFF3 / Fold change vs veh, AFF3 / RFU, LMF1 / Fold change vs veh, LMF1 / RFU, IPO11 / Fold change vs veh, IPO11 / RFU, DFFB / Fold change vs veh, DFFB / RFU, FOXP1 / Fold change vs veh, FOXP1 / RFU, CARD8 / Fold change vs veh, CARD8 / RFU, STRN3 / Fold change vs veh, STRN3 / RFU, ADK / Fold change vs veh, ADK / RFU, RASSF2 / Fold change vs veh, RASSF2 / RFU, WIPF1 / Fold change vs veh, WIPF1 / RFU, LARP1B / Fold change vs veh, LARP1B / RFU, RASA1 / Fold change vs veh, RASA1 / RFU, RB1 / Fold change vs veh, RB1 / RFU, PPFIA1 / Fold change vs veh, PPFIA1 / RFU, MAT2A / Fold change vs veh, MAT2A / RFU, CCT5 / Fold change vs veh, CCT5 / RFU, WDR92 / Fold change vs veh, WDR92 / RFU, CUX1 / Fold change vs veh, CUX1 / RFU, TTC7A / Fold change vs veh, TTC7A / RFU, TMEM135 / Fold change vs veh, TMEM135 / RFU, DEPTOR / Fold change vs veh, DEPTOR / RFU, CPM / Fold change vs veh, CPM / RFU, DNAJB6 / Fold change vs veh, DNAJB6 / RFU, CACNA2D3 / Fold change vs veh, CACNA2D3 / RFU, DTX4 / Fold change vs veh, DTX4 / RFU, TFCP2 / Fold change vs veh, TFCP2 / RFU, GMCL1 /// GMCL1P1 / Fold change vs veh, GMCL1 /// GMCL1P1 / RFU, AEBP2 / Fold change vs veh, AEBP2 / RFU, SNHG1 /// SNORD22 /// SNORD25 /// SNORD26 /// SNORD27 /// SNORD28 /// SNORD29 /// SNORD31 / Fold change vs veh, SNHG1 /// SNORD22 /// SNORD25 /// SNORD26 /// SNORD27 /// SNORD28 /// SNORD29 /// SNORD31 / Fold change (Aza/veh), C12orf56 (ProbeSet 11735607_a_at) / Fold change (ACY-1035/veh), C12orf56 (ProbeSet 11735607_a_at) / Fold change (Aza/veh), FGFR1OP (ProbeSet 11751329_s_at) / Fold change (ACY-1035/veh), FGFR1OP (ProbeSet 11751329_s_at) / Fold change (Aza/veh), VPS36 (ProbeSet 11739960_a_at) / Fold change (ACY-1035/veh), VPS36 (ProbeSet 11739960_a_at) / RFU SYPL1 (11715823_x_at) / Fold change /veh SYPL1 (11715823_x_at) / RFU IGFBP7 (11715501_s_at) / Fold change /veh IGFBP7 (11715501_s_at) / RFU REEP3 (11722064_at) / Fold change /veh REEP3 (11722064_at) / RFU IGLL1 (11728026_x_at) / Fold change /veh IGLL1 (11728026_x_at): dose or concentration left out as unconfirmed
Details: MV-4-11 cells, 48 hours

Nc1ncn([C@@H]2O[C@H](CO)[C@@H](O)[C@H]2O)c(=O)n1 [azacitidine]
RFU C5orf56 (11738088_a_at): 66.32 RFU
